Data taken from paper PMC7822874, “Chemoprotective antimalarials identified through quantitative high-throughput screening of Plasmodium blood and liver stage parasites” (Scientific Reports, 2021).

Each molecule was assayed on Plasmodium falciparum Dd2 asexual blood stage parasites (assay: microbe, parasite or virus in culture). Conditions: Plasmodium falciparum, DD2, Erythrocyte, 72 h; read-out: AC50.
Set-up: species or system Plasmodium falciparum Dd2 in human erythrocytes; single determination (one 11-point concentration-response curve)
`COc1ccccc1NCc1cc(=O)oc2c(C)c(O)ccc12` [MLS001175266-01] showed an AC50 of 5.96 µM. With `O=C(c1n[nH]c2ccccc12)N1CCCC1c1nc(CCOCC2CCOCC2)no1` (stereo not shown) [NCGC00460318-01] the AC50 was 9.44 µM. Molecule `COc1ccc(NC(=O)c2ccc(-c3nnc4ccc(NC(=O)C5CCC5)cn34)cc2)cc1` [NCGC00429884-01] has an AC50 of 4.22 µM. With `O=C1NCN(Cc2ccc(Cl)cc2)C12CCN(CC1CC1)CC2` [NCGC00478768-01] the AC50 was 9.68 µM. In the case of `COC(=O)[C@@H]1Cc2ncn(Cc3ccc(OC)cc3)c2CN1[S+](=O)([O-])Cc1ccccc1` [NCGC00401681-01], the AC50 is reported as 15 µM. Molecule `COc1ccccc1N1CCN(C(=O)CSc2nc(-c3ccc(C(C)C)cc3)no2)CC1` [NCGC00127900-01] has an AC50 of 0.376 µM. `COc1ccc(OC)c([S+](=O)([O-])NC[C@H]2C[C@@H]3CCN2C[C@@H]3c2cc(-c3ccc(F)cc3)nn2C)c1` [NCGC00420960-01] gave an AC50 of 6.68 µM. Molecule `CCOC(=O)c1sc(NC(=O)C(C)Sc2nc(-c3ccccc3)cc(C(F)(F)F)n2)c(C(=O)OC)c1C` (stereo not shown) [NCGC00101272-01] has an AC50 of 2.37 µM. Work on `Oc1ccc(-c2ccccc2)cc1CN1CCCCCC1` [MLS001195126-01] yielded an AC50 of 0.266 µM. `COc1cc([N+](=O)[O-])ccc1NC(=O)Nc1nc2c(s1)CCCC2` [MLS000581295-01] was tested, and the AC50 was 6.68 µM. In the case of `Cn1cccc1CN1CCCC2(C1)C(NC1CCCCC1)=NC(=O)N2c1cccnc1` (stereo not shown) [NCGC00374042-01], the AC50 is reported as 5.31 µM. Work on `Cc1sc2c(c1C)c(=O)n(-c1cccc(C(F)(F)F)c1)c(=O)n2Cc1ccc(F)cc1` [NCGC00106130-01] yielded an AC50 of 2.11 µM. With `CC(=O)NCCC(=O)Nc1cc(S(=O)(=O)N2CCCCC2)ccc1N1CCCCC1` [MLS002181171-01] the AC50 was 7.5 µM. `COC1CN(c2ccc(C)cc2)C12CCN(C(=O)CCc1nc3ccccc3s1)CC2` (stereo not shown) [NCGC00465628-01] showed an AC50 of 10.6 µM. With `COc1ccc(NC(=O)Cn2cccc2-c2nc(-c3ccc(OC)c(F)c3)no2)cc1` [NCGC00445480-01] the AC50 was 4.73 µM. Molecule `COc1ccc(C2CC(c3cccs3)=NN2C(=O)c2ccc(Br)o2)cc1` (stereo not shown) [MLS000663972-01] has an AC50 of 5.31 µM. `COc1ccccc1-c1n[nH]c2ncc(-c3cnn(C)c3)nc12` [NCGC00419074-01] was tested, and the AC50 was 17.2 µM. Molecule `O=C(NCc1ccco1)c1ccc2c(c1)N(Cc1c(F)cccc1Cl)C(=O)c1ccccc1S2` [NCGC00108150-01] has an AC50 of 13.3 µM. In the case of `CCC(Oc1ccccc1)C(=O)Nc1cc(C(F)(F)F)ccc1N1CCOCC1` (stereo not shown) [MLS001099270-01], the AC50 is reported as 7.5 µM. `CC1(c2ccccc2)N(Cc2ccccc2)C(=O)OC12CCN(Cc1cccnc1)CC2` (stereo not shown) [NCGC00415410-01] was tested, and the AC50 was 15.3 µM. In the case of `COc1ccc(-c2c3c(nc4sc(C(=O)Nc5ccc(Cl)cc5)c(N)c24)CC(C)(C)CC3=O)cc1` [NCGC00100738-01], the AC50 is reported as 0.376 µM. Molecule `CCN(CC)c1cc(C)c2cc(NC(=O)c3ccc(Br)o3)ccc2n1` [MLS000519820-01] has an AC50 of 6.68 µM. `O=C(CN1CCN(C(=O)c2ccco2)CC1)Nc1cc(C(F)(F)F)ccc1Cl` [MLS000047443-01] was tested, and the AC50 was 7.5 µM. In the case of `CCOC(=O)c1ccc(NC2=CC(c3ccc(F)cc3)N(c3ccc(C(=O)OCC)cc3)C2=O)cc1` (stereo not shown) [NCGC00102598-01], the AC50 is reported as 8.41 µM. For `CCN1CCN(C(=O)c2ccc3c(c2)N(Cc2c(F)cccc2Cl)C(=O)c2ccccc2S3)CC1` [NCGC00108184-01], the AC50 was 0.00842 µM. In the case of `COc1ccc(-c2nnc(C[C@@H]3C[C@@H](C(C)C)[C@H](CNCc4cccnc4)C=C3C)o2)cc1` [NCGC00394182-01], the AC50 is reported as 6.68 µM. `CCN1CCN(C(=O)c2ccc(-c3nnc4ccc(NC(=O)C5CC5)cn34)cc2)CC1` [NCGC00429842-01] was tested, and the AC50 was 6.68 µM. `CCN1CCN(c2cc(C)c3cc(NC(=O)/C=C/c4cccc(OC)c4OC)ccc3n2)CC1` [NCGC00103854-01] was tested, and the AC50 was 5.96 µM. For `CCCCOc1ccc(NC2=NC(N)=NC3(CCCCC3)N2)cc1` [MLS000109806-01], the AC50 was 8.41 µM. With `COc1ccc(-c2noc(-c3cccn3CC(=O)Nc3ccccc3C)n2)cc1F` [NCGC00445484-01] the AC50 was 5.31 µM. Molecule `COc1ccc(NS(=O)(=O)c2cc(NC(=O)/C=C/c3cc(OC)c(OC)c(OC)c3)ccc2N2CCCCC2)cc1` [MLS000394995-01] has an AC50 of 6.68 µM.
